Data from patent US6800630B2, “Pyrimidine derivatives having antitumor effect” (Shionogi & Co., Ltd., priority 2000, dated 2004).
Converted amounts (≈) assume the structure as drawn.

system: DT-C cells (pGV-P transfected v-ki-ras-transformed NIH373 cells); experiment: Luciferase activity of DT-C control cells (IC50-C), index of non-specific transcription-inhibitory effect or cytotoxicity; assay type: cell-based; conditions: tested concentration nearest to 50% inhibition in DT-C cells
Text: (§1) Test Example 1 Inhibitory effect against cellular signaling derived from Ras oncogene products
(§2) Based on the reporter plasmid (pGV-P (Toyo Ink, Japan)), in which luciferase gene was ligated to SV40-derived minimal promoter, we constructed a plasmid designated pRRE3-luc by inserting 3 copies of chemically synthesized oligonucleotides (Sequence: CAGGATATGACTCT, derived from mouse NVL-3 (M. A. Reddy et al.(1992)Mol. Endocrinol., 6, 1051)) into upstream of the promoter. v-ki-ras-transformed NIH373 cells (DT cells, provided by Dr. Makoto Noda (Kyoto Univ., School of medicine)) were transfected with this plasmid by liposome-mediated transfection and transfected cell lines stably incorporated and maintained each plasmid were obtained. We named pGV-P and pRRE3-transfected cell line as DT-C and DT-R, respectively and used in the assay described below.
(§3) i) All the cell lines were cultured in Dulbecco's Modified Essential Medium (DMEM: 10% Fetal Calf Serum(FCS: Hyclone, USA)) including […] kanamycin (Meiji Seika, Japan) in humidified incubator under condition of 5% CO2 at 37° C.
(§4) ii) DT-C and DT-R cells were seeded at 2500 cells/well into flat-bottom 96 well multiplate (Sumitomo bakelite) and incubated for 24 hours.
(§5) iii) Test compounds were prepared as 1 mg/ml DMSO solution.
(§6) iv) The solution of test compounds were added to the culture. Tested compounds are used at the concentration from […] to 0.51 ng/ml with 3-fold dilution.
(§7) v) After 24 hours, the culture supernatant was completely aspirated and 20 μl of cell-lysing solution (PGC-50 (Toyo Ink, Japan)) was added before cells were dried up. In order to lyse the cells completely, multiwell plates were left at room temperature for 10 to 30 min. The plates were wrapped up and stored at −20° C. till the day of measurement.
(§8) i) Melt the samples by putting 96 well multiplate at 37° C. and add 90 μl/well 25 mM Tris (pH 7.5).
(§9) ii) Transfer 50 μl of the sample (110 μl) to the 96 well microplate (Microlite 1 (Dynatech)) for measurement.
(§10) iii) Measure the samples by the luminometer, LUMINOUS CT9000D (Dia-Yatron, Japan). We used Pickagene luminescence kit PGL2000 or LT2.0 (Toyo Ink, Japan) as enzyme substrates for luminescence measurement (50 μl/well).
(§11) i) The luciferase activity of DT-C cells and DT-R cells were plotted in the graph where the relative activity and the compound concentration were expressed as Y-axis and X-axis, respectively. We judged by the degree of dissociation between the activities of DT-C cells and DT-R cells as an index.
b) Among the points of concentration tested, the concentration which is the nearest to 50% inhibition concentration at DT-C cells (IC50-C), was shown as an index of non-specific transcription-inhibitory effect or of cytotoxicity. In case of positive compounds, 50% inhibition concentration in DT-C cells which was higher than the active concentration was expressed as IC50-C.

| SMILES | IC50 (IC50-C) |
| --- | --- |
| CCNC(=Nc1nc(C)ncc1CSc1nnc(-c2ccc([N+](=O)[O-])cc2)o1)OCC [Compound A-33] | >10 µg/mL |
| CCCNC(=Nc1nc(C)ncc1CSc1nnc(-c2ccc([N+](=O)[O-])cc2)o1)NN(C)C [Compound A-18] | >10 µg/mL |
| CCCNC(=Nc1nc(C)ncc1CSc1nnc(-c2ccc(C)cc2)o1)SC [Compound A-17] | >10 µg/mL |
| CCNC(=Nc1nc(C)ncc1CSc1nnc(-c2ccc(N)cc2)o1)SCC [Compound A-14] | >10 µg/mL |

system: signal derived from Ras oncogene products (DT-R cells, pRRE3-luc transfected v-ki-ras-transformed NIH373 cells); experiment: Inhibitory effect against cellular signaling derived from Ras oncogene products: RRE-luciferase reporter, Minimal Active Concentration (MAC) at which DT-C and DT-R activities dissociate; assay type: cell-based; conditions: minimal concentration at which luciferase activities of DT-C and DT-R cells dissociated
Text: as §1, §2, §3, §4, §5, §6, §7, §8, §9, §10, §11
ii) Concretely, efficacy of the compound was expressed by two values described below.
a) Among the points of concentration tested, the minimal concentration (Minimal Active Concentration: MAC), at which the activities of DT-C cells and DT-R cells dissociated, was shown as an index of efficacy of the compound.

| SMILES | MAC (Minimal Active Concentration) |
| --- | --- |
| CCNC(=Nc1nc(C)ncc1CSc1nnc(-c2ccc([N+](=O)[O-])cc2)o1)SCC [Compound A-6] | 0.0412 µg/mL |
| CCNC(=Nc1nc(C)ncc1CSc1nnc(-c2ccc([N+](=O)[O-])cc2)o1)OCC [Compound A-33] | 0.0412 µg/mL |
| CCSC(=Nc1nc(C)ncc1CSc1nnc(-c2ccc([N+](=O)[O-])cc2)o1)NC [Compound A-5] | 0.123 µg/mL |
| CCCNC(=Nc1nc(C)ncc1CSc1nnc(-c2ccc([N+](=O)[O-])cc2)o1)NN(C)C [Compound A-18] | 0.00457 µg/mL |
| CCCNC(=Nc1nc(C)ncc1CSc1nnc(-c2ccc(C)cc2)o1)SC [Compound A-17] | 0.0412 µg/mL |
| CCNC(=Nc1nc(C)ncc1CSc1nnc(-c2ccc(N)cc2)o1)SCC [Compound A-14] | 0.0412 µg/mL |

system: human squamous lung cancer RERF-RC-AI; experiment: In vitro cell growth inhibition test, MTT assay; assay type: cell-based; conditions: MTT assay 4 days after compound addition
Text: (§12) Test Example 2 In vitro cell growth inhibition test Cells and MTT assay
(§13) Human squamous lung cancer […], human squamous lung cancer Ma44, human lung adenocarcinoma A549, human colon cancer HT29 and human pancreas cancer PANC-1 were used.

| IC50 RERF-LC-AI | SMILES |
| --- | --- |
| 15 ng/mL (≈ 0.0326 µM) | CCNC(=Nc1nc(C)ncc1CSc1nnc(-c2ccc([N+](=O)[O-])cc2)o1)SCC [Compound A-6] |
| 9.3 ng/mL (≈ 0.021 µM) | CCNC(=Nc1nc(C)ncc1CSc1nnc(-c2ccc([N+](=O)[O-])cc2)o1)OCC [Compound A-33] |
| 33 ng/mL (≈ 0.0741 µM) | CCSC(=Nc1nc(C)ncc1CSc1nnc(-c2ccc([N+](=O)[O-])cc2)o1)NC [Compound A-5] |
| 0.4 ng/mL (≈ 0.000848 µM) | CCCNC(=Nc1nc(C)ncc1CSc1nnc(-c2ccc([N+](=O)[O-])cc2)o1)NN(C)C [Compound A-18] |
| 13.2 ng/mL (≈ 0.0308 µM) | CCCNC(=Nc1nc(C)ncc1CSc1nnc(-c2ccc(C)cc2)o1)SC [Compound A-17] |
| 12 ng/mL (≈ 0.0279 µM) | CCNC(=Nc1nc(C)ncc1CSc1nnc(-c2ccc(N)cc2)o1)SCC [Compound A-14] |

system: human colon cancer HT29; experiment: In vitro cell growth inhibition test, MTT assay; assay type: cell-based; conditions: MTT assay 4 days after compound addition
Text: as §12, §13

| IC50 HT-29 | SMILES |
| --- | --- |
| 24.4 ng/mL (≈ 0.0531 µM) | CCNC(=Nc1nc(C)ncc1CSc1nnc(-c2ccc([N+](=O)[O-])cc2)o1)SCC [Compound A-6] |
| 6.6 ng/mL (≈ 0.0149 µM) | CCNC(=Nc1nc(C)ncc1CSc1nnc(-c2ccc([N+](=O)[O-])cc2)o1)OCC [Compound A-33] |
| 48.4 ng/mL (≈ 0.109 µM) | CCSC(=Nc1nc(C)ncc1CSc1nnc(-c2ccc([N+](=O)[O-])cc2)o1)NC [Compound A-5] |
| 0.4 ng/mL (≈ 0.000848 µM) | CCCNC(=Nc1nc(C)ncc1CSc1nnc(-c2ccc([N+](=O)[O-])cc2)o1)NN(C)C [Compound A-18] |
| 15 ng/mL (≈ 0.035 µM) | CCCNC(=Nc1nc(C)ncc1CSc1nnc(-c2ccc(C)cc2)o1)SC [Compound A-17] |
| 11 ng/mL (≈ 0.0256 µM) | CCNC(=Nc1nc(C)ncc1CSc1nnc(-c2ccc(N)cc2)o1)SCC [Compound A-14] |

system: human lung adenocarcinoma A549; experiment: In vitro cell growth inhibition test, MTT assay; assay type: cell-based; conditions: MTT assay 4 days after compound addition
Text: as §12, §13

| IC50 A549 | SMILES |
| --- | --- |
| 25.6 ng/mL (≈ 0.0557 µM) | CCNC(=Nc1nc(C)ncc1CSc1nnc(-c2ccc([N+](=O)[O-])cc2)o1)SCC [Compound A-6] |
| 23 ng/mL (≈ 0.0519 µM) | CCNC(=Nc1nc(C)ncc1CSc1nnc(-c2ccc([N+](=O)[O-])cc2)o1)OCC [Compound A-33] |
| 70 ng/mL (≈ 0.157 µM) | CCSC(=Nc1nc(C)ncc1CSc1nnc(-c2ccc([N+](=O)[O-])cc2)o1)NC [Compound A-5] |
| 51.4 ng/mL (≈ 0.109 µM) | CCCNC(=Nc1nc(C)ncc1CSc1nnc(-c2ccc([N+](=O)[O-])cc2)o1)NN(C)C [Compound A-18] |
| 17.4 ng/mL (≈ 0.0406 µM) | CCCNC(=Nc1nc(C)ncc1CSc1nnc(-c2ccc(C)cc2)o1)SC [Compound A-17] |
| 12 ng/mL (≈ 0.0279 µM) | CCNC(=Nc1nc(C)ncc1CSc1nnc(-c2ccc(N)cc2)o1)SCC [Compound A-14] |

system: human squamous lung cancer Ma44; experiment: In vitro cell growth inhibition test, MTT assay; assay type: cell-based; conditions: MTT assay 4 days after compound addition
Text: as §12, §13

| IC50 Ma44 | SMILES |
| --- | --- |
| 18.2 ng/mL (≈ 0.0396 µM) | CCNC(=Nc1nc(C)ncc1CSc1nnc(-c2ccc([N+](=O)[O-])cc2)o1)SCC [Compound A-6] |
| 9.1 ng/mL (≈ 0.0205 µM) | CCNC(=Nc1nc(C)ncc1CSc1nnc(-c2ccc([N+](=O)[O-])cc2)o1)OCC [Compound A-33] |
| 44.6 ng/mL (≈ 0.1 µM) | CCSC(=Nc1nc(C)ncc1CSc1nnc(-c2ccc([N+](=O)[O-])cc2)o1)NC [Compound A-5] |
| 0.4 ng/mL (≈ 0.000848 µM) | CCCNC(=Nc1nc(C)ncc1CSc1nnc(-c2ccc([N+](=O)[O-])cc2)o1)NN(C)C [Compound A-18] |
| 24.1 ng/mL (≈ 0.0562 µM) | CCCNC(=Nc1nc(C)ncc1CSc1nnc(-c2ccc(C)cc2)o1)SC [Compound A-17] |
| 32 ng/mL (≈ 0.0745 µM) | CCNC(=Nc1nc(C)ncc1CSc1nnc(-c2ccc(N)cc2)o1)SCC [Compound A-14] |

system: human pancreas cancer PANC-1; experiment: In vitro cell growth inhibition test, MTT assay; assay type: cell-based; conditions: MTT assay 4 days after compound addition
Text: as §12, §13

| IC50 PANC-1 | SMILES |
| --- | --- |
| 14.8 ng/mL (≈ 0.0322 µM) | CCNC(=Nc1nc(C)ncc1CSc1nnc(-c2ccc([N+](=O)[O-])cc2)o1)SCC [Compound A-6] |
| 8.6 ng/mL (≈ 0.0194 µM) | CCNC(=Nc1nc(C)ncc1CSc1nnc(-c2ccc([N+](=O)[O-])cc2)o1)OCC [Compound A-33] |
| 66.5 ng/mL (≈ 0.149 µM) | CCSC(=Nc1nc(C)ncc1CSc1nnc(-c2ccc([N+](=O)[O-])cc2)o1)NC [Compound A-5] |
| 0.4 ng/mL (≈ 0.000848 µM) | CCCNC(=Nc1nc(C)ncc1CSc1nnc(-c2ccc([N+](=O)[O-])cc2)o1)NN(C)C [Compound A-18] |
| 10.7 ng/mL (≈ 0.025 µM) | CCCNC(=Nc1nc(C)ncc1CSc1nnc(-c2ccc(C)cc2)o1)SC [Compound A-17] |
| 9.8 ng/mL (≈ 0.0228 µM) | CCNC(=Nc1nc(C)ncc1CSc1nnc(-c2ccc(N)cc2)o1)SCC [Compound A-14] |

system: H460; experiment: In vitro cell growth inhibition test, MTT assay; assay type: cell-based; conditions: MTT assay 4 days after compound addition
Text: [The source words this procedure for another cell line and reports this cell line under the same test.] as §12, §13

| IC50 H460 | SMILES |
| --- | --- |
| 25.6 ng/mL (≈ 0.0557 µM) | CCNC(=Nc1nc(C)ncc1CSc1nnc(-c2ccc([N+](=O)[O-])cc2)o1)SCC [Compound A-6] |
| 89 ng/mL (≈ 0.2 µM) | CCSC(=Nc1nc(C)ncc1CSc1nnc(-c2ccc([N+](=O)[O-])cc2)o1)NC [Compound A-5] |
| 27.5 ng/mL (≈ 0.0583 µM) | CCCNC(=Nc1nc(C)ncc1CSc1nnc(-c2ccc([N+](=O)[O-])cc2)o1)NN(C)C [Compound A-18] |
| 15 ng/mL (≈ 0.035 µM) | CCCNC(=Nc1nc(C)ncc1CSc1nnc(-c2ccc(C)cc2)o1)SC [Compound A-17] |
